Values joined by “and” are separate entries in the source; they are usually repeats but may differ in a detail not shown here. Identical values can stand only once.

This note sets out measurements from patent US9096591B2, “Tetracyclic compounds” (Medivation Technologies, Inc., priority 2007, dated 2015).

The target of test [1] is T1, human recombinant serotonin 5-HT2A receptor (Homo sapiens, UniProt P28223).
T1 construct: expressed in transfected cells; host or cells: HEK-293 cells
Description: Serotonin 5-HT2A agonist/antagonist functional assay (calcium fluorescence, HEK-293). The test is classed as cell-based. To be noted: antagonist mode. The source says: To determine for agonist or antagonist activity of compounds of the invention in functional assays, human recombinant serotonin 5-HT2A receptor expressed in human embryonic kidney (HEK-293) cells (Jerman J C, Brough S J, Gager T, Wood M, Coldwell M C, Smart D and Middlemiss D N. Eur J Pharmacol, 414: 23-30, 2001) was used. Cells were suspended in DMEM buffer, and distributed in microplates. A cytoplasmic calcium fluorescent indicator which varies proportionally to the free cytosolic Ca^2+ ion concentration was mixed with probenicid in HBSS buffer complemented with 20 mM Hepes (pH 7.4), added into each well and equilibrated with the cells for 30 min at 37° C. followed by 30 min at 22° C. […]
The standard reference antagonist was ketanserin, which was tested in each experiment at several concentrations to generate a concentration-response curve from which its IC50 value was calculated.

For the next test, the system named is C57BL/6 mice. The experiment in a line: Recognition of a new location of the known object (spatial memory). The class given is in vivo. The source says:
The object recognition test is based on the fact that mice and rats spontaneously explore new object or location of a known object a lot longer than the know object or a known location of an object. This test was first used in rats (Ennaceur A., Delacour J., 1988). It was further shown by others that this type of memory testing is suitable for mice (Dodart J. et al. 1997, Messier C. 1997, Pittenger C. et al., 2002, Ryabinin A. et al., 2002, Sargolini F. et al., 2003). The method of recognition of an object is divided in two stages. The first one involves the recognition of a new location of a known object, which is used to assess spatial memory. The second one includes a test for recognition of a new in order to evaluate the non-spatial memory (Gaffan D., 1992, Kolb B. et al., 1994, Steckler T., 1998). Currently, both are widely used to determine the effectiveness of newly synthesized drugs on memory.
All experiments were carried out on 3-4 months old males (C57BL/6 line) 22-26 g weight with 10 animals in each group. All animals were kept in the animal facility (5 animals per cage) on the 12×12 hours light cycle (8 am-8 pm) with free access to food and water. […] Brown glass vials were used as test objects which are 2.7 cm in diameter (1.1 inch) and 5.5 cm high (2.2 inch). All vials were treated with 85% ethanol 2-3 minutes before each testing. Animals were placed in the center of the chamber.
Dimebon and compounds of the invention were dissolved in distilled water and administered orally at 0.05 mL per 10 g of animal mass 1 hour before the training exercise. All animals in the control group were treated with the equivalent dose of vehicle. The testing was performed 48 hours after the training exercise because animals forget the location of the object during the 48-hour resting time.
On the first day animals were brought in the testing room so that they could adapt to the testing environment for 20-30 min. Subsequently, each animal was placed in the empty testing chamber for 10 min, which was wiped with alcohol beforehand. After that animals were transferred back into the […] and returned to the animal facility.
The next day after habituation, the animals were brought back into the testing room where they were weighed and injected with the testing compound. An hour after injection, each animal was placed into the testing camber which had two identical objects that were positioned 14.5 cm (5.7 inches) from the corners on the diagonal. The training exercise lasted for 15 min for each animal. Subsequently, each animal was placed back into the cage and returned into the animal house.
The testing procedure was performed 48 hours after the training exercise. During the procedure two objects were used as in the training exercise. […] The amount of time that each animal spent on exploration each object was determined with 0.1 sec accuracy using two electronic stopwatches for total of 10 min. […] The survey of the object was counted as positive if the nose of an animal was pointed within 2 cm or if the animal was touching the objected directly with the nose.
Due to fair differences in the amount of time that each animal surveyed the object, the percentage of the survey time for each animal was determined using this formula: tNL/(tFL+tNL)×100 (where t is time, NL—new location(object), and FL—familiar location(object)). […] Subsequently, the statistical significance was analyzed using a Student's t-test criteria.

T1 sequence (P28223 whole entry): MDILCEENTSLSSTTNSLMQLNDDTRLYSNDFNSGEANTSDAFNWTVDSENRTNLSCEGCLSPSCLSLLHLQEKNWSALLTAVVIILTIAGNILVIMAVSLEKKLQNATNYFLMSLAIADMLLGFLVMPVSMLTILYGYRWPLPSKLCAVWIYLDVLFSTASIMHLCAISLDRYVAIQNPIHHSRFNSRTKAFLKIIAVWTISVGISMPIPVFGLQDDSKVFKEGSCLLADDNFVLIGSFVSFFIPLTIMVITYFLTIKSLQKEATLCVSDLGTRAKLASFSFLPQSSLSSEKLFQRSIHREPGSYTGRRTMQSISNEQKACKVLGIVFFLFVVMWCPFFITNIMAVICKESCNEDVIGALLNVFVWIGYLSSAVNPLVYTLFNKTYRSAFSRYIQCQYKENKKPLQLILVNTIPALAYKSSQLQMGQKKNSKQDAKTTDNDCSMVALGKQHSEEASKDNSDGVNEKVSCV

In the case of `CN1CCc2c(c3cc(Cl)ccc3n2CCc2ccccc2)C1` [Compound 36, 8-chloro-2,3,4,5-tetrahydro-2-methyl-5-phenethyl-1H-pyrido[4,3-b]indole], the “% of Control Agonist Response, 1st Assay” value in test [1] (test concentration 1.00E−07 M) is 111% and 100% and 105%; in test [1] (test concentration 3.00E−07 M) it was 92% and 109%; in test [1] (test concentration 3.00E−08 M) it was 109%. Moreover, the “% of Control Agonist Response, 2nd Assay” value in test [1] (test concentration 1.00E−07 M) was 102% and 106% and 115%; in test [1] (test concentration 3.00E−07 M), 105% and 98% and 97%; in test [1] (test concentration 3.00E−08 M), 108%. The “% of Control Agonist Response, Mean” value in test [1] (test concentration 1.00E−07 M) was 106.4% and 103% and 109.9%; in test [1] (test concentration 3.00E−06 M), 5.3% and 9.7% and 0.4%; in test [1] (test concentration 3.00E−07 M) it was 98.8% and 94.8% and 102.8%; in test [1] (test concentration 3.00E−08 M) it was 108.7%.
Take `COc1ccc(CCn2c3c(c4cc(C)ccc42)CN(C)CC3)cc1` [Compound 247]: the “% of Control Agonist Response, 1st Assay” value in test [1] (test concentration 1.00E−06 M) was −4% and −2% and 2%; in test [1] (test concentration 1.00E−07 M), 117% and 93%; in test [1] (test concentration 3.00E−06 M), −4%; in test [1] (test concentration 3.00E−08 M), 122% and 103%. Further, the “% of Control Agonist Response, 2nd Assay” value was 0% and 3% in test [1] (test concentration 1.00E−06 M); 116% and 94% and 95% in test [1] (test concentration 1.00E−07 M); −3% in test [1] (test concentration 3.00E−06 M); 76% and 72% and 38% in test [1] (test concentration 3.00E−07 M); 120% and 108% and 111% in test [1] (test concentration 3.00E−08 M). The “% of Control Agonist Response, Mean” value was −1.7% and 0.3% and 0.7% in test [1] (test concentration 1.00E−06 M); 116.5% and 93.5% and 93.9% in test [1] (test concentration 1.00E−07 M); −3.2% in test [1] (test concentration 3.00E−06 M); 121.3% and 104.5% and 107% in test [1] (test concentration 3.00E−08 M).
`CN1CCc2c(c3ccccc3n2CCc2noc(-c3ccccc3)n2)C1` [Compound C4-1]: the “effect on memory in the recognition test of a known object in a new location” value in the test on C57BL/6 mice (0.05 mg/kg, 0.5 mg/kg, and 1 mg/kg) was “not significantly different from the control group”. Also, in the test with C57BL/6 mice (0.1 mg/kg), the “time exploring the object in a new location, % of the total time” value is 61.3±6.9% and the “time exploring the object in the known position, % of the total time” value worked out at 38.7±6.9%.
